“Also recorded” adds a separate entry of the source.
Legend:
ovine COX-1 = target: T1, ovine COX-1 (Ovis aries, UniProt P05979); test: Cyclooxygenase inhibition assay (COX Fluorescent Inhibitor Screening Assay Kit), COX-1; format: biochemical; conditions: ovine COX-1; % inhibition at 100 μM concentration
T1 construct: purchased Cayman Chemical 700100
T1 sequence (P05979 25-600): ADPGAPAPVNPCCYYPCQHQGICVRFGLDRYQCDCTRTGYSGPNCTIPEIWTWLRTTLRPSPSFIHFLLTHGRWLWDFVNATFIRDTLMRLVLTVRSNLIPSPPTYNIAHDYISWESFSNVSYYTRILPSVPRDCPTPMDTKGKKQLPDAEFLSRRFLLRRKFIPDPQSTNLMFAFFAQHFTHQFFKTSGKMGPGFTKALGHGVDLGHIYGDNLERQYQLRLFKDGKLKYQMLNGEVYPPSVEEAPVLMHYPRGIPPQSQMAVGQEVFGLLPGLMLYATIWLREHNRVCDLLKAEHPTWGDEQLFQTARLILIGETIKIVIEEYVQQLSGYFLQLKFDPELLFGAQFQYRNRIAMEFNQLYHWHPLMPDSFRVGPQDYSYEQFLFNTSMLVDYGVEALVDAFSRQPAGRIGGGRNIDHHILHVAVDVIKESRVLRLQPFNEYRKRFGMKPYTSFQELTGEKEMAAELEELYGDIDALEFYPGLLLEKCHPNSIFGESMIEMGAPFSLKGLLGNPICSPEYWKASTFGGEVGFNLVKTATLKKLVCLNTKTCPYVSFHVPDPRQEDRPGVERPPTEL
Protocol: (§1) Stock solutions of test compounds are dissolved in a minimum volume of DMSO. 10 μl of various concentrations of the test compound solutions, e.g., [I]final between 0.01 and 100 μM, are added to a series of supplied reaction buffer solutions (150 μl, 100 mM Tris-HCl, pH 8.0) with either COX-1 or COX-2 (10 μl) enzyme in the presence of Heme (10 μl) and a fluorometric substrate (10 μl). The reactions are initiated by quickly adding 10 μl of arachidonic acid solution and then incubating the system for two minutes at room temperature. […] The intensity of this fluorescence is proportional to the amount of resorufin, which is proportional to the amount of PGG2 present in the well during the incubation. Percent inhibition is calculated by comparison from the 100% initial activity sample value (no inhibitor).
as §1, with “compounds were” for “compounds are”, “μM, were” for “μM, are”, “reactions were” for “reactions are”, “then incubated” for “then incubating the system”, “inhibition was” for “inhibition is”

LPS induced allodynia = test: Von Frey mechanical nociceptive assay, LPS induced model of inflammatory pain; format: in vivo; conditions: male SD rats, 10 mg/kg s.c. 60 minutes before intraplantar LPS, tested until 6 hours post LPS
Protocol: In vivo anti-allodynic effects of the COX-2/sEH dual inhibitors provided herein was assayed. An LPS induced model of inflammatory pain was used to compare the pain reducing activity of the COX-2/sEH dual inhibitors to combination and individual therapies.
Rats weighing approximately 250-300 grams are brought to the testing apparatus and allowed to acclimate for 30 minutes. After 30 minutes the rats are tested with a von Frey aesthesiometer for their non-treated baseline withdrawal latency to mechanical stimulation. The von Frey apparatus is a raised metal mesh platform that has clear acrylic chambers to enclose rats but allow them to move freely. A rigid tip von Frey probe is used to probe the plantar surface of the rat hind paw though the mesh floor to elicit a withdrawal response. The measures recorded are grams of force applied to the hind paw required to elicit a withdrawal. The pretreatment baseline score is considered the pain-free baseline (BL) and is assigned 100% for further response calculations. […] The measures are then calculated as a percent of the pretreatment baseline score.

## O=C(NC1CCC(Oc2ccc(C(=O)O)cc2)CC1)NC12CC3CC(CC(C3)C1)C2 (centres unmarked) [t-AUCB, reference compound]
Ovine COX-1
  COX-1 (% inhibition): 25.2%
LPS induced allodynia
  Anti-allodynic effect, von Frey paw withdrawal, in words: slight antihyperalgesic effect; also recorded: limited effect

Reference: patent US9096532B2, “Pyrazole inhibitors of COX-2 and sEH” (The Regents of the University of California, priority 2010, dated 2015)
